Each molecule was assayed against human recombinant USP30 (Homo sapiens (Human), UniProt Q70CQ3) (assay: Ubiquitin-Rhodamine 110 Assay for USP30 Activity). Details: 0.2 nM USP30, 25 nM Ub-Rh110, 30 min preincubation.
human recombinant USP30, sequence (Q70CQ3 whole entry): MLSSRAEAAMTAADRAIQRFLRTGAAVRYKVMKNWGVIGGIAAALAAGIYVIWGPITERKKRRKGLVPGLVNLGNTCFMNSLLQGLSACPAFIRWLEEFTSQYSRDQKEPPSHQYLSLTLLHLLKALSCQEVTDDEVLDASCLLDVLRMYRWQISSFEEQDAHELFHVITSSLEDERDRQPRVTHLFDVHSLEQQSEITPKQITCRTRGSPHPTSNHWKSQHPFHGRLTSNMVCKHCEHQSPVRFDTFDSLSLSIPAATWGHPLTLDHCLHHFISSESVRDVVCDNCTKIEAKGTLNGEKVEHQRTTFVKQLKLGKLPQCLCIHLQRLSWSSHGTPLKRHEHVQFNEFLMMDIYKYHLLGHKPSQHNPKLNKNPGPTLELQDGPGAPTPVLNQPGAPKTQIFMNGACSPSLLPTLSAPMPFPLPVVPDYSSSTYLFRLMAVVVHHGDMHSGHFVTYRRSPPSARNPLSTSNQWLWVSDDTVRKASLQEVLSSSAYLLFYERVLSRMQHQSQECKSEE
Assay type: biochemical
Procedure: The assay was performed in a final volume of 9 μL in assay buffer containing 20 mM Tris-HCl (pH 8.0, (IM Tris-HCl, pH 8.0 solution; Corning 46-031-CM)), 1 mM GSH (L-glutathione reduced, Sigma-Aldrich, G4251-100G), 0.03% BGG (0.22 μM filtered, Sigma, G7516-25G), and 0.01% Triton X-100 (Sigma, T9284-10L). Nanoliter quantities of 10-point, 3-fold serial dilution in DMSO were pre-dispensed into 1536 assay plates (Corning, #3724BC) for a final test concentration of 25 μM to 1.3 nM, top to lowest dose, respectively. Concentration and incubation times were optimized for the maximal signal-to-background while maintaining initial velocity conditions at a fixed substrate concentration. The final concentration of USP30 (human recombinant USP30, Boston Biochem, cat. #E-582) in the assay was 0.2 nM. Final substrate (Ub-Rh110; Ubiquitin-Rhodamine 110, UbiQ-126) concentration was 25 nM with [Ub-Rh110]<<Km. 3 μL of 2×USP30 was added to assay plates (pre-stamped with compound), preincubated for 30 minutes and then treated with 3 μL of 2×Ub-Rh110. Plates were incubated for 30 minutes at room temperature before addition of 3 μL of stop solution (final concentration of 10 mM citric acid (Sigma, 251275-500G)). Fluorescence was read on the Envision (excitation at 485 nm and emission at 535 nm; Perkin Elmer) or on the PheraSTAR (excitation at 485 nm and emission at 535 nm; BMG Labtech) fluorescence reader.
For all assay formats, data were reported as percent inhibition compared with control wells based on the following equation: % inh=1−((FLU−AveLow)/(AveHigh−AveLow)) where FLU=measured Fluorescence, AveLow=average Fluorescence of no enzyme control (n=16), and AveHigh=average Fluorescence of DMSO control (n=16). IC50 values were determined by curve fitting of the standard 4 parameter logistic fitting algorithm included in the Activity Base software package: IDBS XE Designer Model205. Data is fitted using the Levenburg Marquardt algorithm.
With `N#CN1C[C@H]2CCC[C@@]2(NC(=O)c2cc(-c3ccccc3Oc3ccccc3)[nH]n2)C1` (single isomer, unassigned) [Compound 20-b] the IC50 was < 100 nM. Work on `N#CN1C[C@@H]2C[C@H]1[C@@H]2NC(=O)c1cc(-c2ccccc2Oc2ccccc2)[nH]n1` (single isomer, unassigned) [Compound 8-b] yielded an IC50 of 100 to 1000 nM. For `N#CN1C[C@@H](NC(=O)c2cc(-c3ccccc3Oc3ccccc3)[nH]n2)CC12COC2` (single isomer, unassigned) [Compound 9-a], the IC50 was > 1000 nM. Work on `N#CN1C[C@H]2C[C@@]2(NC(=O)c2cc(-c3ccccc3Oc3ccccc3)[nH]n2)C1` (single isomer, unassigned) [Compound 3-a] yielded an IC50 of 100 to 1000 nM. For `N#CN1C[C@@H]2C[C@H]1CCN2C(=O)c1cc(-c2ccccc2Oc2ccccc2)[nH]n1` (single isomer, unassigned) [Compound 1-a], the IC50 was 100 to 1000 nM. `N#CN1C[C@@H]2CCC[C@]2(NC(=O)c2cc(-c3ccccc3Oc3ccccc3)[nH]n2)C1` (single isomer, unassigned) [Compound 20-a] was tested, and the IC50 was < 100 nM. `N#CN1C[C@H]2C[C@@H]1CCN2C(=O)c1cc(-c2ccccc2Oc2ccccc2)[nH]n1` (single isomer, unassigned) [Compound 1b] was tested, and the IC50 was < 100 nM. `N#CN1C[C@@H]2CC[C@]2(NC(=O)c2cc(-c3ccccc3Oc3ccccc3)[nH]n2)C1` (stereo in doubt) [Compound 6-a, N-((1R,5S)-3-cyano-3-azabicyclo[3.2.0]heptan-1-yl)-5-(2-phenoxyphenyl)-1H-pyrazole-3-carboxamide] was tested, and the IC50 was < 100 nM. With `N#CN1C[C@H]2C[C@@H]1CN2C(=O)c1cc(-c2ccccc2Oc2ccccc2)[nH]n1` (single isomer, unassigned) [Compound 4-b] the IC50 was 100 to 1000 nM. `N#CN1CC2CCC1C2NC(=O)c1cc(-c2ccccc2Oc2ccccc2)[nH]n1` (single isomer, unassigned) [Compound 2-a] was tested, and the IC50 was < 100 nM. With `N#CN1C[C@@H]2C[C@]2(NC(=O)c2cc(-c3ccccc3Oc3ccccc3)[nH]n2)C1` (single isomer, unassigned) [Compound 3-b] the IC50 was < 100 nM. For `N#CN1C[C@H](NC(=O)c2cc(-c3ccccc3Oc3ccccc3)[nH]n2)CC12COC2` (single isomer, unassigned) [Compound 9-b], the IC50 was > 1000 nM. For `N#CN1C[C@H](NC(=O)c2cc(-c3ccccc3Oc3ccccc3)[nH]n2)C2(CC2)C1` (single isomer, unassigned) [Compound 5-b], the IC50 was 100 to 1000 nM. For `N#CN1C[C@@H](NC(=O)c2cc(-c3ccccc3Oc3ccccc3)[nH]n2)C2(CC2)C1` (single isomer, unassigned) [Compound 5-a], the IC50 was < 100 nM. With `N#CN1CC2CCC1C2NC(=O)c1cc(-c2ccccc2Oc2ccccc2)[nH]n1` (single isomer, unassigned) [Compound 2-b] the IC50 was > 1000 nM. With `N#CN1C[C@H]2CC[C@@]2(NC(=O)c2cc(-c3ccccc3Oc3ccccc3)[nH]n2)C1` (stereo in doubt) [Compound 6-b, N-((1S,5R)-3-cyano-3-azabicyclo[3.2.0]heptan-1-yl)-5-(2-phenoxyphenyl)-1H-pyrazole-3-carboxamide] the IC50 was 100 to 1000 nM. `N#CN1C[C@@H]2C[C@H]1CN2C(=O)c1cc(-c2ccccc2Oc2ccccc2)[nH]n1` (single isomer, unassigned) [Compound 4-a] showed an IC50 of 100 to 1000 nM. `N#CN1C[C@H]2C[C@@H]1[C@H]2NC(=O)c1cc(-c2ccccc2Oc2ccccc2)[nH]n1` (single isomer, unassigned) [Compound 8-a] gave an IC50 of 100 to 1000 nM.

Source: US11814386B2, “Fused pyrrolines which act as ubiquitin-specific protease 30 (USP30) inhibitors” (FORMA Therapeutics, Inc., priority 2018, dated 2023)
